Laboratory results as given in US12690586B2, “Herbicidal malonamides” (BASF SE, priority 2020, dated 2026).

Legend:
Assay in all cases: greenhouse post-emergence herbicidal test
Format in all cases: in vivo
Details in all cases: post-emergence method, application rate 0.125 kg/ha; scale 0 to 100
[1] = tested on: Abutilon theophrasti (ABUTH)
Description: (§1) The culture containers used were plastic flowerpots containing loamy sand with approximately 3.0% of humus as the substrate. The seeds of the test plants were sown separately for each species.
(§2) For the pre-emergence treatment, the active ingredients, which had been suspended or emulsified in water, were applied directly after sowing by means of finely distributing nozzles. The containers were irrigated gently to promote germination and growth and subsequently covered with transparent plastic hoods until the test plants had rooted. This cover caused uniform germination of the test plants, unless this had been impaired by the active ingredients. For the post-emergence treatment, the test plants were first grown to a height of 3 to 15 cm, depending on the plant habit, and only then treated with the active ingredients which had been suspended or emulsified in water. For this purpose, the test plants were either sown directly and grown in the same containers, or they were first grown separately as seedlings and transplanted into the test containers a few days prior to treatment.
(§3) Depending on the species, the test plants were kept at 10-25° C. or 20-35° C., respectively. The test period extended over 2 to 4 weeks. During this time, the test plants were tended, and their response to the individual treatments was evaluated.
(§4) Evaluation was carried out using a scale from 0 to 100. 100 means no emergence of the test plants, or complete destruction of at least the aerial moieties, and 0 means no damage, or normal course of growth. A good herbicidal activity is given at values of 65 to 90 and a very good herbicidal activity is given at values of 90 to 100.
(§5) The test plants used in the greenhouse experiments were of the following species: […]

[2] = tested on: Alopecurus myosuroides (ALOMY)
Description: as §1, §2, §3, §4, §5

Avena fatua (AVEFA) = tested on: Avena fatua (AVEFA)
Description: as §1, §2, §3, §4, §5

In the case of `COC(=O)[C@@H]1C=C[C@H](NC(=O)C2(C(=O)Nc3cc(F)cc(F)c3)CC2)C1` [I.2, methyl (1S,4R)-4-{1-[(3,5-difluorophenyl)carbamoyl]cyclopropaneamido}cyclopent-2-ene-1-carboxylate], the “herbicidal activity against ABUTH” value [1] is reported as “good (A good herbicidal activity is given at values of 65 to 90)”, the “herbicidal activity against ALOMY” value [2] is reported as “very good (a very good herbicidal activity is given at values of 90 to 100)” and the “herbicidal activity against AVEFA” value (Avena fatua (AVEFA)) is reported as “very good (a very good herbicidal activity is given at values of 90 to 100)”.
